Measured values as given in ChEMBL document CHEMBL3784999, “Investigation of 4-amino-5-alkynylpyrimidine-2(1H)-ones as anti-mycobacterial agents” (Bioorg Med Chem, 2016).
Values after ≈ are worked out from the molar mass of the structure shown. Active and inactive are the calls of the source. The calls are words filed in the database; no cut-off is given here.

Columns and labels:
Mus musculus [1] = assay: Toxicity in BALB/c mouse infected with Mycobacterium tuberculosis H37Ra at 6.25 to 25 mg/kg, po administered for 2 weeks started on day 4 post bacterial infection by necroscopy; assay type: organism-based; conditions: in vivo, 336 h
[2] = tested on: Mycobacterium tuberculosis; assay: Antimycobacterial activity against Mycobacterium tuberculosis H37Ra assessed as inhibition of mycobacterial replication at 6.25 ug/ml after 6 days by microplate Alamar blue assay in absence of isoniazid; assay type: functional, organism-based
Mus musculus [3] = assay: Toxicity in BALB/c mouse infected with Mycobacterium tuberculosis H37Ra assessed as behavioral changes at 6.25 to 25 mg/kg, po administered for 2 weeks started on day 4 post bacterial infection in presence of isoniazid; assay type: organism-based; conditions: in vivo, 336 h
[4] = tested on: Mycobacterium tuberculosis; assay: Antimycobacterial activity against Mycobacterium tuberculosis H37Ra infected in BALB/c mouse assessed as reduction of bacterial load in liver at 25 mg/kg, po administered for 2 weeks started on day 4 post bacterial infection measured 3 days post last dose; assay type: functional
[5] = tested on: Mycobacterium tuberculosis; assay: Antimycobacterial activity against Mycobacterium tuberculosis H37Ra infected in BALB/c mouse assessed as reduction of bacterial load in lung at 25 mg/kg, po administered for 2 weeks started on day 4 post bacterial infection measured 3 days post last dose; assay type: functional
[6] = tested on: Mycobacterium tuberculosis; assay: Antimycobacterial activity against Mycobacterium tuberculosis H37Ra assessed as inhibition of mycobacterial replication at 200 ug/ml after 6 days by microplate Alamar blue assay; assay type: functional; conditions: 144 h
[7] = tested on: Mycobacterium tuberculosis; assay: Antimycobacterial activity against Mycobacterium tuberculosis H37Ra infected in BALB/c mouse assessed as reduction of bacterial load in spleen at 6.25 to 6.25 mg/kg, po administered for 2 weeks started on day 4 post bacterial infection measured 3 days post last dose; assay type: functional, organism-based
[8] = tested on: Mycobacterium tuberculosis; assay: Antimycobacterial activity against Mycobacterium tuberculosis H37Ra infected in BALB/c mouse assessed as reduction in bacterial activity in lung at 6.25 mg/kg, po administered for 2 weeks started on day 4 post bacterial infection measured 3 days post last dose co-treated with 1 mg/kg, po isoniazid; assay type: functional
Mus musculus [9] = assay: Toxicity in BALB/c mouse infected with Mycobacterium tuberculosis H37Ra assessed as change in phosphate level in serum at 6.25 to 25 mg/kg, po administered for 2 weeks started on day 4 post bacterial infection in presence of isoniazid; assay type: organism-based; conditions: in vivo, 336 h
Mus musculus [10] = assay: Toxicity in BALB/c mouse infected with Mycobacterium tuberculosis H37Ra assessed as change in amylase level in serum at 6.25 to 25 mg/kg, po administered for 2 weeks started on day 4 post bacterial infection in presence of isoniazid; assay type: organism-based; conditions: in vivo, 336 h
Mus musculus [11] = assay: Toxicity in BALB/c mouse infected with Mycobacterium tuberculosis H37Ra assessed as change in urea level in serum at 6.25 to 25 mg/kg, po administered for 2 weeks started on day 4 post bacterial infection in presence of isoniazid; assay type: organism-based; conditions: in vivo, 336 h
Mus musculus [12] = assay: Toxicity in BALB/c mouse infected with Mycobacterium tuberculosis H37Ra at 6.25 to 25 mg/kg, po administered for 2 weeks started on day 4 post bacterial infection by necroscopy in presence of isoniazid; assay type: organism-based; conditions: in vivo, 336 h
[13] = tested on: Mycobacterium tuberculosis; assay: Antimycobacterial activity against Mycobacterium tuberculosis H37Ra infected in BALB/c mouse assessed as reduction of bacterial load in lung at 12.5 mg/kg, po administered for 2 weeks started on day 4 post bacterial infection measured 3 days post last dose co-treated with 1 mg/kg, po isoniazid; assay type: functional
[14] = tested on: Mycobacterium tuberculosis; assay: Antimycobacterial activity against Mycobacterium tuberculosis H37Ra assessed as inhibition of mycobacterial replication at 50 ug/ml after 6 days by microplate Alamar blue assay; assay type: functional; conditions: 144 h
Mus musculus [15] = assay: Toxicity in BALB/c mouse infected with Mycobacterium tuberculosis H37Ra assessed as change in calcium level in serum at 6.25 to 25 mg/kg, po administered for 2 weeks started on day 4 post bacterial infection in presence of isoniazid; assay type: organism-based; conditions: in vivo, 336 h
[16] = tested on: Mycobacterium tuberculosis; assay: Antimycobacterial activity against Mycobacterium tuberculosis H37Ra infected in BALB/c mouse assessed as reduction of bacterial load in lung at 6.25 to 6.25 mg/kg, po administered for 2 weeks started on day 4 post bacterial infection measured 3 days post last dose; assay type: functional, organism-based
Mus musculus [17] = assay: Toxicity in BALB/c mouse infected with Mycobacterium tuberculosis H37Ra assessed as change in alkaline phosphatase level in serum at 6.25 to 25 mg/kg, po administered for 2 weeks started on day 4 post bacterial infection; assay type: organism-based; conditions: in vivo, 336 h
[18] = tested on: Mycobacterium tuberculosis; assay: Antimycobacterial activity against Mycobacterium tuberculosis H37Ra infected in BALB/c mouse assessed as reduction of bacterial load in spleen at 12.5 mg/kg, po administered for 2 weeks started on day 4 post bacterial infection measured 3 days post last dose co-treated with 1 mg/kg, po isoniazid; assay type: functional
Mus musculus [19] = assay: Toxicity in BALB/c mouse infected with Mycobacterium tuberculosis H37Ra assessed as change in amylase level in serum at 6.25 to 25 mg/kg, po administered for 2 weeks started on day 4 post bacterial infection; assay type: organism-based; conditions: in vivo, 336 h
Mus musculus [20] = assay: Toxicity in BALB/c mouse infected with Mycobacterium tuberculosis H37Ra assessed as change in urea level in serum at 6.25 to 25 mg/kg, po administered for 2 weeks started on day 4 post bacterial infection; assay type: organism-based; conditions: in vivo, 336 h
[21] = tested on: Mycobacterium tuberculosis; assay: Antimycobacterial activity against Mycobacterium tuberculosis H37Ra assessed as inhibition of mycobacterial replication after 6 days by microplate Alamar blue assay; assay type: functional; conditions: 144 h
Mus musculus [22] = assay: Toxicity in BALB/c mouse infected with Mycobacterium tuberculosis H37Ra assessed as change in alkaline phosphatase level in serum at 6.25 to 25 mg/kg, po administered for 2 weeks started on day 4 post bacterial infection in presence of isoniazid; assay type: organism-based; conditions: in vivo, 336 h
[23] = tested on: Mycobacterium tuberculosis; assay: Antimycobacterial activity against Mycobacterium tuberculosis H37Ra assessed as inhibition of mycobacterial replication at 6.25 ug/ml after 6 days by microplate Alamar blue assay in presence of isoniazid; assay type: functional; conditions: 144 h
[24] = tested on: Mycobacterium tuberculosis; assay: Ratio MIC90 for Mycobacterium tuberculosis H37Ra in presence of isoniazid to MIC90 for Mycobacterium tuberculosis H37Ra in absence of isoniazid; assay type: functional
Mus musculus [25] = assay: Toxicity in BALB/c mouse infected with Mycobacterium tuberculosis H37Ra assessed as gross necroscopy changes at 6.25 to 25 mg/kg, po administered for 2 weeks started on day 4 post bacterial infection; assay type: organism-based; conditions: in vivo, 336 h
Mus musculus [26] = assay: Toxicity in BALB/c mouse infected with Mycobacterium tuberculosis H37Ra assessed as change in creatinine level in serum at 6.25 to 25 mg/kg, po administered for 2 weeks started on day 4 post bacterial infection; assay type: organism-based; conditions: in vivo, 336 h
Mus musculus [27] = assay: Toxicity in BALB/c mouse infected with Mycobacterium tuberculosis H37Ra assessed as change in cholesterol level in serum at 6.25 to 25 mg/kg, po administered for 2 weeks started on day 4 post bacterial infection in presence of isoniazid; assay type: organism-based; conditions: in vivo, 336 h
[28] = tested on: Mycobacterium tuberculosis; assay: Antimycobacterial activity against Mycobacterium tuberculosis H37Ra assessed as inhibition of mycobacterial replication at 25 ug/ml after 6 days by microplate Alamar blue assay; assay type: functional; conditions: 144 h
[29] = tested on: Mycobacterium tuberculosis; assay: Antimycobacterial activity against Mycobacterium tuberculosis H37Ra infected in BALB/c mouse assessed as reduction in bacterial activity in spleen at 6.25 mg/kg, po administered for 2 weeks started on day 4 post bacterial infection measured 3 days post last dose co-treated with 1 mg/kg, po isoniazid; assay type: functional

`CCCCCC#Cc1c[nH]c(=O)nc1N` was tested, and the Activity (Mus musculus [1]) was “Non-toxic”, the inhibition [2] was “inactive” and the Activity (Mus musculus [3]) was “Non-toxic”. For the same molecule, the inhibition in vivo at 25 mg/kg [4] was 50%, the inhibition in vivo at 25 mg/kg [5] was 79% and the inhibition at 200 µg/mL [6] was 100%. The Activity [7] was “inactive”, the “inhibition (INH)” value [8] was 70% and the Activity (Mus musculus [9]) was “Non-toxic”. For the same molecule, the Activity (Mus musculus [10]) was “Non-toxic”, the Activity (Mus musculus [11]) was “Non-toxic” and the Activity (Mus musculus [12]) was “Non-toxic”. For the same molecule, the “inhibition (INH)” value [13] was 95%, the inhibition at 50 µg/mL [14] was 100% and the Activity (Mus musculus [15]) was “Non-toxic”. For the same molecule, the Activity [16] was “inactive”, the Activity (Mus musculus [17]) was “Non-toxic” and the “inhibition (INH)” value [18] was 70%. The Activity (Mus musculus [19]) was “Non-toxic”, the Activity (Mus musculus [20]) was “Non-toxic” and the MIC50 [21] was 12.5 µg/mL (≈ 60.9 µM). The Activity (Mus musculus [22]) was “Non-toxic”, the inhibition at 6.25 µg/mL [23] was 100% and the “fractional inhibitory concentration index (FICI)” value [24] was 0.37. The Activity (Mus musculus [25]) was “Non-toxic”, the Activity (Mus musculus [26]) was “Non-toxic” and the Activity (Mus musculus [27]) was “Non-toxic”. The inhibition at 25 µg/mL [28] was 90% and the “inhibition (INH)” value [29] was 40%.
